Source: patent US20220079912A1, “ANTICANCER FORMULATION” (University of Mississippi, priority 2018, published 2022)

Legend:
[1] = test system: B16 mouse melanoma cells; test: Cell proliferation / cell survival; type: cell-based; conditions: B16, varying concentrations, 48 hours, dose dependent, FIG. 1
Method: (§1) Example 1: trans-Gnetin H (GH)—Trans-Gnetin H inhibits cell proliferation. […] B16 mouse melanoma cells, T98G glioblastoma cells, and MDA-MB-231 human breast cancer cells were treated with varying concentrations of GH for 48 hours with cell survival measured. The B16 mouse melanoma cell line was the most sensitive to the anti-proliferative action of GH, perhaps due to the highly glycolytic nature of these cells and/or that they contain wild type p53.

[2] = test system: MDA-MB-231 human breast cancer cells; test: Cell proliferation / cell survival; type: cell-based; conditions: MDA-MB-231, varying concentrations, 48 hours, dose dependent, FIG. 1
Method: as §1

[3] = test system: T98G glioblastoma cells; test: Cell proliferation / cell survival; type: cell-based, human; conditions: varying concentrations, 48 hours, dose dependent, FIG. 1
Method: B16 mouse melanoma cells, T98G glioblastoma cells, and MDA-MB-231 human breast cancer cells were treated with varying concentrations of GH for 48 hours with cell survival measured.

[4] = test system: B16 mouse melanoma cells; test: Lactic acid accumulation in cell culture medium; type: cell-based; conditions: B16, FIG. 2A
Description: (§2) During cell survival experiments the acidification of the cell culture medium was inhibited when GH was present. Acidification of the cell culture medium occurs because of the enhanced use of glycolysis by transformed cells (and resulting increase in lactic acid production). This led us to investigate whether GH reduced lactic acid levels in the cell culture medium.

[5] = test system: MDA-MB-231 human breast cancer cells; test: Lactic acid accumulation in cell culture medium; type: cell-based; conditions: MDA-MB-231, FIG. 2C
Description: as §2

[6] = test system: MDA-MB-231 cells; test: Glucose transport (2-NBDG accumulation); type: cell-based, human; conditions: MDA-MB-231, treated for one hour followed by 2-NBDG for one hour
Description: Phloretin, a known glucose transport inhibitor, was used as a positive control. Accumulation of 2-NDGB was inhibited by phloretin by 54% in T98G cells, by 31% in B16 cells and by 74% in MDA-MB-231 cells. The first panel for each cell line represents unstained cells, the second stained with 2-NBDG for one hour, the third treated with GH for one hour followed by 2-NBDG for one hour and the fourth treated with phloretin for one hour followed by 2-NBDG for one hour.

[7] = test system: B16 cells; test: Lactic acid export (intracellular lactic acid levels); type: cell-based, mouse; conditions: FIG. 4
Method: To prevent the buildup of lactic acid within the cell a family of monocarboxylate transporters (MCT) functions to transport lactic acid out of the cell (10). To determine if GH inhibits lactic acid export from the cell, and in this manner inhibits the accumulation of lactic acid in the cell culture medium, intracellular lactic acid levels were measured. If GH inhibited lactic acid export, treatment of cells with GH would result in the increase in intracellular lactic acid levels. As a positive control the MCT1 inhibitor AZD3965 was used.

[8] = test system: T98G cells; test: Combination cytotoxicity with mitochondrial complex I inhibitors (% cell survival)
Description: Example 2: Gnetin H In Combination with Mitochondrial Complex I Inhibitors. […] The plus signs above the combination treatment bars indicates the value of % cell survival if the anti-proliferative effect was additive.
In FIGS. 9 A-B., the plus signs are placed above the combination treatment bars at the % cell survival value if the anti-proliferative effect was additive. […] Both T98G and MDA-MB-231 cells lack functional p53 but B16 are p53 wild type.
Example 4: Peony Seed extract. […] T98G cells were treated with different concentrations of purified GH (numbers indicate μM) or PSE (numbers indicate μg/ml) alone or in combination with a Paw Paw (PP) extract (2 μg/ml) for 48 hrs (FIG. 12 A). The plus signs are placed above the combination treatment bars at the % cell survival value if the anti-proliferative effect was additive. […] T98G cells were treated with different concentrations of purified GH or PSE in combination with a Paw Paw extract (2 μg/ml) for 48 hrs (FIG. 12 B).

[9] = test system: BT-549; test: Combination cytotoxicity with phenformin; type: cell-based; conditions: BT-549, data not shown
[10] = test system: SK-MEL; test: Combination cytotoxicity with phenformin; type: cell-based; conditions: data not shown
[11] = test system: KHOS; test: Combination cytotoxicity with phenformin; type: cell-based; conditions: data not shown
[12] = test system: SK-OV3; test: Combination cytotoxicity with phenformin; type: cell-based; conditions: SK-OV3, data not shown
[13] = test system: T98G cells; test: Apoptosis, annexin V/propidium iodide (PI) staining; type: cell-based, human; conditions: FIG. 10
Description: This additional target remains to be identified.

[14] = test system: TXNIP protein levels; test: Western blot of TXNIP protein, T98G cell line; type: cell-based, human; conditions: FIG. 15, FIG. 17
Description: AMPK activation has been previously shown to phosphorylate and cause the degradation of TXNIP during energy stress (13).

[15] = test system: T98G glioblastoma cells; test: Colony formation assay, combination with DHEA; type: cell-based, human; conditions: 12 h (other inhibitors 24 h), FIG. 19
Method: GH, a glycolysis inhibitor, is cytotoxic to human tumor cells when used in combination with a Glucose-6-Phosphate Dehydrogenase inhibitor, dehydroepiandrosterone, (DHEA). To compensate for high ROS levels, cancer cells increase glycolysis and pentose phosphate cycle to provide reducing equivalents (NADH and NADPH) to neutralize hydro peroxides (15). […] The other glycolysis inhibitors tested in combination with DHEA were ineffective even at 24 h.

[16] = test system: MDA-MB-231 breast cancer cells; test: Colony formation assay, combination with DHEA; type: cell-based, human; conditions: MDA-MB-231, 24 h, FIG. 20
[17] = test system: PA-1 Ovarian cancer; test: Colony formation assay, combination with DHEA; type: cell-based, human; conditions: PA-1, 24 h, FIG. 20
[18] = test system: Colo320DM colon cancer; test: Colony formation assay, combination with DHEA; type: cell-based, human; conditions: 24 h, FIG. 20
[19] = test system: Mia-PACA pancreatic cancer; test: Colony formation assay, combination with DHEA; type: cell-based, human; conditions: 24 h, FIG. 20
[20] = test system: BNC16 patient derived Glioblastoma cells; test: Colony formation assay, combination with DHEA; type: cell-based, human; conditions: BNC16, 24 h, FIG. 20
[21] = test system: BNC41 patient derived Glioblastoma cells; test: Colony formation assay, combination with DHEA; type: cell-based, human; conditions: BNC41, 24 h, FIG. 20
[22] = test system: cancer stem cells (CSCs) grown from BNC6 patient derived Glioblastoma cells; test: Cell viability by Trypan Blue exclusion cell count, combination with DHEA; type: cell-based, human; conditions: 24 h, FIGS. 22A-B

SMILES: Oc1ccc(/C=C/c2c3c(cc4c2[C@H](c2cc(O)cc(O)c2)[C@@H](c2ccc(O)cc2)O4)O[C@H](c2ccc(O)cc2)[C@H]3c2cc(O)cc(O)c2)cc1 (relative stereo) [GH, trans-Gnetin H]
- inhibition of cell proliferation (cell survival) [1]: inhibits the proliferation
- inhibition of cell proliferation (cell survival) [2]: inhibits the proliferation
- inhibition of cell proliferation (cell survival) [3]: inhibits the proliferation
- lactic acid production [4]: inhibits lactic acid production
- lactic acid production [5]: inhibits lactic acid production
- effect on accumulation of 2-NBDG (glucose transport) [6]: did not influence the accumulation
- effect on intracellular lactic acid [7]: did not increase intracellular lactic acid
- synergistic cytotoxicity in combination with Paw Paw (PP) extract (2 μg/ml) [8]: exhibited synergistic cytotoxicity
- synergistic cytotoxicity in combination with acetogenins (PP) at 1 μg/ml [8]: synergistically cytotoxic
- IC50 in combination with PP ([8]; T98G, Paw Paw extract 2 μg/ml, 48 hrs, FIG. 12 B): 1.3 µg/mL
- synergistic cytotoxicity with phenformin [9]: synergistically cytotoxic
- synergistic cytotoxicity with phenformin [10]: synergistically cytotoxic
- synergistic cytotoxicity with phenformin [11]: synergistically cytotoxic
- synergistic cytotoxicity with phenformin [12]: synergistically cytotoxic
- induction of apoptosis in combination with Paw Paw extract (PP) [13]: extensive induction of apoptosis
- induction of apoptosis in combination with phenformin (Ph) [13]: extensive induction of apoptosis
- TXNIP protein levels, in combination with Ph [14]: reduction of TXNIP protein levels
- TXNIP protein levels, agent alone ([14]; GH 8 μM 6 hrs or 3 hrs, 2-DG 25 mM, OXA 25 mM, BPX 25 μM, DCA 25 mM, 6 hr): dramatic reduction in the levels of TXNIP protein
- cytotoxicity in combination with DHEA (cell staining) [15]: rapidly cytotoxic
- cytotoxicity in combination with DHEA (cell staining) [16]: cytotoxic
- cytotoxicity in combination with DHEA (cell staining) [17]: cytotoxic
- cytotoxicity in combination with DHEA (cell staining) [18]: cytotoxic
- cytotoxicity in combination with DHEA (cell staining) [19]: cytotoxic
- cytotoxicity in combination with DHEA (cell staining) [20]: cytotoxic
- cytotoxicity in combination with DHEA (cell staining) [21]: cytotoxic
- cytotoxicity in combination with DHEA (percentage of cell viability) [22]: cytotoxic
